Legend:
Details in all cases: 72 h
Caco-2 [1] = assay: cell viability relative to DMSO; higher = less toxic
Calu-3 [2] = assay: as above
HepG2 [3] = assay: as above
U2OS [4] = assay: as above
Vero E6 [5] = assay: as above
Caco-2 [6] = assay: relative viability EC50 (midpoint between 100% and the lowest measured viability); higher = less toxic
Calu-3 [7] = assay: as above
HepG2 [8] = assay: as above
U2OS [9] = assay: as above
Vero E6 [10] = assay: as above
Caco-2 [11] = assay: drug sensitivity score (DSS) for viability; higher = more toxic; extreme values may be limits of the assay
Calu-3 [12] = assay: as above
HepG2 [13] = assay: as above
U2OS [14] = assay: as above
Vero E6 [15] = assay: as above

SMILES	cell viability (Caco-2 [1]; 1 nM) [%]	cell viability (Caco-2 [1]; 10 nM) [%]	cell viability (Caco-2 [1]; 100 nM) [%]	cell viability (Caco-2 [1]; 1000 nM) [%]	cell viability (Caco-2 [1]; 10000 nM) [%]	cell viability (Calu-3 [2]; 1 nM) [%]	cell viability (Calu-3 [2]; 10 nM) [%]	cell viability (Calu-3 [2]; 100 nM) [%]	cell viability (Calu-3 [2]; 1000 nM) [%]	cell viability (Calu-3 [2]; 10000 nM) [%]	cell viability (HepG2 [3]; 1 nM) [%]	cell viability (HepG2 [3]; 10 nM) [%]	cell viability (HepG2 [3]; 100 nM) [%]	cell viability (HepG2 [3]; 1000 nM) [%]	cell viability (HepG2 [3]; 10000 nM) [%]	cell viability (U2OS [4]; 1 nM) [%]	cell viability (U2OS [4]; 10 nM) [%]	cell viability (U2OS [4]; 100 nM) [%]	cell viability (U2OS [4]; 1000 nM) [%]	cell viability (U2OS [4]; 10000 nM) [%]	cell viability (Vero E6 [5]; 1 nM) [%]	cell viability (Vero E6 [5]; 10 nM) [%]	cell viability (Vero E6 [5]; 100 nM) [%]	cell viability (Vero E6 [5]; 1000 nM) [%]	cell viability (Vero E6 [5]; 10000 nM) [%]	relative viability EC50 (Caco-2 [6]) [µM]	relative viability EC50 (Calu-3 [7]) [µM]	relative viability EC50 (HepG2 [8]) [µM]	relative viability EC50 (U2OS [9]) [µM]	relative viability EC50 (Vero E6 [10]) [µM]	drug sensitivity score (Caco-2 [11])	drug sensitivity score (Calu-3 [12])	drug sensitivity score (HepG2 [13])	drug sensitivity score (U2OS [14])	drug sensitivity score (Vero E6 [15])
CCN(CCO)CCCC(C)Nc1ccnc2cc(Cl)ccc12 (stereo not given) [hydroxychloroquine]	103	116	100	102	85.4	94.1	105	86.8	109	95.9	101	95.9	96.8	94.6	89.6	97.1	98.1	93.4	96.8	89.4	101	95.4	108	93.9	96.8	> 10	> 10	> 10	> 10	> 10	0.1	0	0	0	0
O=C1NC(c2cccc([N+](=O)[O-])c2)=CCN1c1ccccc1O [icilin]	93.4	102	97.6	99.2	100	97.4	94.1	93.7	108	108	94.3	93.4	103	98	101	95.5	103	98.3	103	104	91.9	94.3	94	94.9	106	> 10	> 10	> 10	> 10	> 10	0	0	0	0	0
Nc1c2c(nc3c1CCC3)CCCC2 [ipidacrine]	84.5	96.4	96.3	91.8	106	99.2	99.9	88.6	90.9	100	101	99.9	104	94.6	109	96.8	93.4	103	94.8	99.4	96.5	96.4	95.8	94.7	108	> 10	> 10	> 10	> 10	> 10	0	0	0	0	0
CC[C@H](C)[C@H](N)C(=O)O [isoleucine]	88.4	100	99.3	94.5	108	101	89.1	91.1	99.9	103	99.5	95.6	104	90.8	97.4	101	96.8	96.3	107	106	92.1	97.3	96.4	95.4	106	> 10	> 10	> 10	> 10	> 10	0	0	0	0	0
CCCCCCCCCCCCCCCC(=O)OC(C)C [isopropyl-palmitate]	101	102	109	90.8	90.4	106	96.6	94.3	93.8	101	92.2	102	99	94.8	95.8	102	95.9	97.5	93.2	97.7	96	98.8	99	98.8	97.2	> 10	> 10	> 10	> 10	> 10	0	0	0	0	0
CCN(CC)CCNC(=O)COc1ccc(OC)cc1 [mefexamide]	93	98.3	81.7	81.9	102	108	106	109	106	98.5	114	73.9	92.7	114	119	97.9	99.3	104	98	102	95.1	106	95.4	96.8	108	> 10	> 10	> 10	> 10	> 10	0.1	0	0	0	0
CC(C)S(=O)(=O)NC[C@H](C)c1ccc(-c2ccc(CCNS(C)(=O)=O)cc2)cc1 [mibampator]	96.4	100	101	103	83	101	107	99.9	99.9	86.2	107	105	101	88.2	32.6	99.1	102	100	104	94.1	90.8	98	95.1	94	95.6	> 10	> 10	1.85	> 10	> 10	0.3	0.2	5.7	0	0
COc1cc2c(cc1OC)[C@@H](Cc1cc(OC)c(OC)c(OC)c1)[N+](C)(CCCOC(=O)CC/C=C/CCC(=O)OCCC[N+]1(C)CCc3cc(OC)c(OC)cc3[C@H]1Cc1cc(OC)c(OC)c(OC)c1)CC2 (stereo not given in full) [mivacurium]	107	98.9	109	123	94.5	112	97.6	101	89.7	94	101	95.2	99.4	84.3	97.7	102	99.8	98.6	96.3	100	106	112	105	97.7	93	> 10	> 10	> 10	> 10	> 10	0	0	0	0	0
CCCN(CCC)C(=O)C1=Cc2ccc(-c3ccc(C(=O)N4CCCC4)cc3)cc2N=C(N)C1 [motolimod]	102	106	124	109	100	121	103	112	112	98.1	107	113	89.7	114	40.6	106	101	99.6	98.1	92	102	102	98.1	99.2	91.6	> 10	> 10	4	> 10	> 10	0	0	2.5	0	0
NCc1cc(O)no1 [muscimol]	94.7	96.5	98.4	99.5	103	91.6	95.7	98.3	104	97.3	96.8	105	97.7	98.1	94.5	101	94.6	99.6	98.6	97.3	98.8	97	93.1	97.1	101	> 10	> 10	> 10	> 10	> 10	0	0	0	0	0
CNS(=O)(=O)CCc1ccc2[nH]cc(C3CCN(C)CC3)c2c1 [naratriptan]	97.5	105	92.7	100	105	114	94.1	94.7	97	107	102	98.2	105	103	108	102	106	99.2	99.8	95.9	98.9	100	91.9	99.7	96.7	> 10	> 10	> 10	> 10	> 10	0	0	0	0	0
CN1Cc2c(N)cccc2C(c2ccccc2)C1 (stereo not given) [nomifensine]	97.1	95	98	94.6	103	104	98.2	100	106	96.8	106	110	93.5	103	97.3	101	100	102	101	96.3	97.9	96.8	94.2	99.4	110	> 10	> 10	> 10	> 10	> 10	0	0	0	0	0
O=Cc1cn(Cc2ccc(Cl)cc2)c2ccccc12 [oncrasin-1]	92.2	90.8	97.2	101	98.6	94.8	100	96.2	99.8	106	101	110	104	40.3	1.2	97.2	96.8	102	100	101	90.4	102	94.1	95.9	103	> 10	> 10	0.847	> 10	> 10	0	0	12.5	0	0
OCCN1CCN(CCCN2c3ccccc3C=Cc3ccccc32)CC1 [opipramol]	89.8	102	88.6	100	76.6	100	93.3	99.7	100	98	107	104	98	91.4	92.1	97.6	95.6	101	103	97	107	99.8	104	98.5	83.9	> 10	> 10	> 10	> 10	> 10	0.8	0	0	0	0.5

Reference: the supplement of paper PMC13380429
